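Protocol summary: plate cells (96-well), add compound at 5 concentrations, incubate 48 h, interpolate endpoints linearly. GI50 is the concentration that inhibits growth by half.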 Calls of active or inactive are those of the source. Cut-off read from the data, not from the text of the source: active = GI50 up to about 1.1 µM and inactive = higher.
Assays:
Assay in all cases: inhibition of tumour cell growth, NCI panel, 48 h
NCI/ADR-RES = test system: NCI/ADR-RES
NCI-H522 = test system: NCI-H522
HL-60 = test system: HL-60
IGROV-1 = test system: IGROV-1
CCRF-CEM = test system: CCRF-CEM
NCI-H23 = test system: NCI-H23
LOX IMVI = test system: LOX IMVI
OVCAR-8 = test system: OVCAR-8
K562 = test system: K562
HCT-15 = test system: HCT-15
COLO 205 = test system: COLO 205
EKVX = test system: EKVX
SK-MEL-28 = test system: SK-MEL-28
OVCAR-4 = test system: OVCAR-4
NCI-H460 = test system: NCI-H460
SNB-19 = test system: SNB-19
CAKI-1 = test system: CAKI-1
HT-29 = test system: HT-29
ACHN = test system: ACHN
A549 = test system: A549
MDA-MB-231 = test system: MDA-MB-231
Hs-578T = test system: Hs-578T
U-251 = test system: U-251
UACC-257 = test system: UACC-257
OVCAR-5 = test system: OVCAR-5
PC-3 = test system: PC-3
MDA-N = test system: MDA-N
TK-10 = test system: TK-10
KM12 = test system: KM12
RPMI-8226 = test system: RPMI-8226
HCC 2998 = test system: HCC 2998
UACC-62 = test system: UACC-62
HOP-62 = test system: HOP-62
DU-145 = test system: DU-145
M14 = test system: M14
SF-295 = test system: SF-295
MDA-MB-435 = test system: MDA-MB-435
SNB-75 = test system: SNB-75
SK-MEL-2 = test system: SK-MEL-2
SF-539 = test system: SF-539
NCI-H226 = test system: NCI-H226
MCF7 = test system: MCF7
SW-620 = test system: SW-620
HOP-92 = test system: HOP-92
SK-MEL-5 = test system: SK-MEL-5
MOLT-4 = test system: MOLT-4
SR = test system: SR
A498 = test system: A498
T47D = test system: T47D
OVCAR-3 = test system: OVCAR-3
RXF 393 = test system: RXF 393
Malme-3M = test system: Malme-3M
786-0 = test system: 786-0
UO-31 = test system: UO-31
SK-OV-3 = test system: SK-OV-3
SF-268 = test system: SF-268
SN12C = test system: SN12C
HCT-116 = test system: HCT-116

## N#CCN(Cc1ccccc1)[C@@H]1CCC[C@]1(O)C#Cc1ccc2c(c1)OCO2
NCI/ADR-RES
  GI50: 19.5 µM (inactive)
NCI-H522
  GI50: 16.1 µM (inactive)
HL-60
  GI50: 20.6 µM (inactive)
IGROV-1
  GI50: 17.1 µM (inactive)
CCRF-CEM
  GI50: 17.6 µM (inactive)
NCI-H23
  GI50: 16.4 µM (inactive)
LOX IMVI
  GI50: 15.9 µM (inactive)
OVCAR-8
  GI50: 16.7 µM (inactive)
K562
  GI50: 20.3 µM (inactive)
HCT-15
  GI50: 21.8 µM
COLO 205
  GI50: 17.4 µM (inactive)
EKVX
  GI50: 27 µM (inactive)
SK-MEL-28
  GI50: 17.1 µM (inactive)
OVCAR-4
  GI50: 15 µM (inactive)
NCI-H460
  GI50: 16.1 µM (inactive)
SNB-19
  GI50: 20.7 µM (inactive)
CAKI-1
  GI50: 22.2 µM (inactive)
HT-29
  GI50: 18.2 µM (inactive)
ACHN
  GI50: 18 µM (inactive)
A549
  GI50: 18.5 µM (inactive)
MDA-MB-231
  GI50: 16.9 µM (inactive)
Hs-578T
  GI50: 14.1 µM (inactive)
U-251
  GI50: 17.9 µM (inactive)
UACC-257
  GI50: 18.8 µM (inactive)
OVCAR-5
  GI50: 16.1 µM (inactive)
PC-3
  GI50: 19.7 µM (inactive)
MDA-N
  GI50: 17.5 µM (inactive)
TK-10
  GI50: 21.1 µM (inactive)
KM12
  GI50: 15.2 µM (inactive)
RPMI-8226
  GI50: 16 µM (inactive)
HCC 2998
  GI50: 16.3 µM (inactive)
UACC-62
  GI50: 16.1 µM (inactive)
HOP-62
  GI50: 16.2 µM (inactive)
DU-145
  GI50: 27.4 µM (inactive)
M14
  GI50: 16.8 µM (inactive)
SF-295
  GI50: 19.8 µM (inactive)
MDA-MB-435
  GI50: 18.5 µM (inactive)
SNB-75
  GI50: 31 µM (inactive)
SK-MEL-2
  GI50: 16.4 µM (inactive)
SF-539
  GI50: 11.7 µM (inactive)
NCI-H226
  GI50: 18.6 µM (inactive)
MCF7
  GI50: 16.9 µM (inactive)
SW-620
  GI50: 22.5 µM (inactive)
HOP-92
  GI50: 12.9 µM (inactive)
SK-MEL-5
  GI50: 16.4 µM (inactive)
MOLT-4
  GI50: 16.4 µM (inactive)
SR
  GI50: 17.8 µM (inactive)
A498
  GI50: 20.3 µM (inactive)
T47D
  GI50: 16.6 µM (inactive)
OVCAR-3
  GI50: 14.9 µM (inactive)
RXF 393
  GI50: 15.2 µM (inactive)
Malme-3M
  GI50: 18.2 µM (inactive)
786-0
  GI50: 15.8 µM (inactive)
UO-31
  GI50: 28.2 µM (inactive)
SK-OV-3
  GI50: 25.8 µM (inactive)
SF-268
  GI50: 19.1 µM (inactive)

## COc1cc2c(NCCN(C)C)nc3c4cc5c(cc4ccc3c2cc1OC)OCO5
NCI/ADR-RES
  GI50: 4.16 µM (inactive)
NCI-H522
  GI50: 3.9 µM (inactive)
HL-60
  GI50: 4.23 µM (inactive)
IGROV-1
  GI50: 2.8 µM (inactive)
CCRF-CEM
  GI50: 1.32 µM (inactive)
NCI-H23
  GI50: 3.08 µM (inactive)
OVCAR-8
  GI50: 3.13 µM (inactive)
K562
  GI50: 3.23 µM (inactive)
HCT-15
  GI50: 2.94 µM
COLO 205
  GI50: 2.81 µM (inactive)
EKVX
  GI50: 4.09 µM (inactive)
SK-MEL-28
  GI50: 4.93 µM (inactive)
OVCAR-4
  GI50: 3.96 µM (inactive)
NCI-H460
  GI50: 0.193 µM (active)
SNB-19
  GI50: 3.56 µM (inactive)
CAKI-1
  GI50: 2.73 µM (inactive)
HT-29
  GI50: 3.37 µM (inactive)
ACHN
  GI50: 0.745 µM (active)
A549
  GI50: 2.75 µM (inactive)
MDA-MB-231
  GI50: 5.13 µM (inactive)
Hs-578T
  GI50: 5.21 µM (inactive)
U-251
  GI50: 4.16 µM (inactive)
UACC-257
  GI50: 4.1 µM (inactive)
OVCAR-5
  GI50: 3.42 µM (inactive)
PC-3
  GI50: 5.04 µM (inactive)
SN12C
  GI50: 4.53 µM (inactive)
MDA-N
  GI50: 3.57 µM (inactive)
TK-10
  GI50: 2.72 µM (inactive)
KM12
  GI50: 4.18 µM (inactive)
RPMI-8226
  GI50: 2.56 µM (inactive)
HCC 2998
  GI50: 4.59 µM (inactive)
HCT-116
  GI50: 3.3 µM (inactive)
UACC-62
  GI50: 4.49 µM (inactive)
HOP-62
  GI50: 3.54 µM (inactive)
DU-145
  GI50: 3.96 µM (inactive)
M14
  GI50: 4.03 µM (inactive)
SF-295
  GI50: 2.58 µM (inactive)
MDA-MB-435
  GI50: 3.5 µM (inactive)
SNB-75
  GI50: 2.18 µM (inactive)
SK-MEL-2
  GI50: 6.04 µM (inactive)
SF-539
  GI50: 4.06 µM (inactive)
NCI-H226
  GI50: 3.7 µM (inactive)
MCF7
  GI50: 1.84 µM (inactive)
SW-620
  GI50: 3.36 µM (inactive)
HOP-92
  GI50: 4.82 µM (inactive)
SK-MEL-5
  GI50: 2.84 µM (inactive)
MOLT-4
  GI50: 0.242 µM (active)
SR
  GI50: 0.115 µM (active)
A498
  GI50: 2.76 µM (inactive)
T47D
  GI50: 6.15 µM (inactive)
RXF 393
  GI50: 3.16 µM (inactive)
Malme-3M
  GI50: 4.14 µM (inactive)
786-0
  GI50: 2.95 µM (inactive)
UO-31
  GI50: 3.36 µM (inactive)
SK-OV-3
  GI50: 4.78 µM (inactive)
SF-268
  GI50: 4.78 µM (inactive)

## OC1NC2CC3NC(O)C(O)NC3CC2NC1O (centres undefined)
NCI/ADR-RES
  GI50: > 100 µM (inactive)
NCI-H522
  GI50: > 100 µM (inactive)
HL-60
  GI50: > 100 µM (inactive)
IGROV-1
  GI50: > 100 µM (inactive)
CCRF-CEM
  GI50: > 100 µM (inactive)
NCI-H23
  GI50: > 100 µM (inactive)
LOX IMVI
  GI50: > 100 µM (inactive)
OVCAR-8
  GI50: > 100 µM (inactive)
K562
  GI50: > 100 µM (inactive)
HCT-15
  GI50: > 100 µM
COLO 205
  GI50: > 100 µM (inactive)
EKVX
  GI50: > 100 µM (inactive)
SK-MEL-28
  GI50: > 100 µM (inactive)
OVCAR-4
  GI50: > 100 µM (inactive)
NCI-H460
  GI50: > 100 µM (inactive)
SNB-19
  GI50: > 100 µM (inactive)
CAKI-1
  GI50: > 100 µM (inactive)
HT-29
  GI50: > 100 µM (inactive)
ACHN
  GI50: > 100 µM (inactive)
A549
  GI50: > 100 µM (inactive)
MDA-MB-231
  GI50: > 100 µM (inactive)
Hs-578T
  GI50: > 100 µM (inactive)
U-251
  GI50: > 100 µM (inactive)
UACC-257
  GI50: > 100 µM (inactive)
OVCAR-5
  GI50: > 100 µM (inactive)
PC-3
  GI50: > 100 µM (inactive)
SN12C
  GI50: > 100 µM (inactive)
MDA-N
  GI50: > 100 µM (inactive)
TK-10
  GI50: > 100 µM (inactive)
KM12
  GI50: > 100 µM (inactive)
RPMI-8226
  GI50: > 100 µM (inactive)
HCC 2998
  GI50: > 100 µM (inactive)
HCT-116
  GI50: > 100 µM (inactive)
UACC-62
  GI50: > 100 µM (inactive)
HOP-62
  GI50: > 100 µM (inactive)
DU-145
  GI50: > 100 µM (inactive)
M14
  GI50: > 100 µM (inactive)
SF-295
  GI50: > 100 µM (inactive)
MDA-MB-435
  GI50: > 100 µM (inactive)
SNB-75
  GI50: > 100 µM (inactive)
SK-MEL-2
  GI50: > 100 µM (inactive)
SF-539
  GI50: > 100 µM (inactive)
NCI-H226
  GI50: > 100 µM (inactive)
MCF7
  GI50: > 100 µM (inactive)
SW-620
  GI50: > 100 µM (inactive)
HOP-92
  GI50: > 100 µM (inactive)
SK-MEL-5
  GI50: > 100 µM (inactive)
MOLT-4
  GI50: > 100 µM (inactive)
SR
  GI50: > 100 µM (inactive)
T47D
  GI50: > 100 µM (inactive)
OVCAR-3
  GI50: > 100 µM (inactive)
RXF 393
  GI50: > 100 µM (inactive)
Malme-3M
  GI50: > 100 µM (inactive)
786-0
  GI50: > 100 µM (inactive)
UO-31
  GI50: > 100 µM (inactive)
SK-OV-3
  GI50: > 100 µM (inactive)
SF-268
  GI50: > 100 µM (inactive)
